System: Staphylococcus aureus ATCC 6538
Assay: Combinatorial Minimum Inhibitory Concentration (cMIC) test
Assay type: cell-based
Set-up: key to bacteria growth (values equal to or higher than 10 mean growth, less than 10 no growth): % of OD620 of control well without actives (full growth)
Details: for reduction of level when combined (MIC alone / level in combination): 33.3/3.13 for hinokitiol, 12.5/6.25 for piroctone olamine
Method: One way to combat the issues of cost of a material is to combine it with a lower cost material. This can be complicated depending on whether the materials interact, what each of the materials target, whether they can complement one another, how much of each is needed for efficacy, etc. This is considered to be an additive interaction between the materials, i.e. where each is doing what one would expect based on their individual properties. Occasionally, when materials are added together the combination performs better than what would be expected based on the individual performances. This is considered a synergistic relationship. Synergy can be determined through the use of a Combinatorial Minimum Inhibitory Concentration (“cMIC”) test. This can be used to determine the combinatorial effects of two chemicals on anti-bacterial activity in a tissue culture setting.
It has been discovered that there is a synergistic relationship between hinokitiol and a 2-pyridinol N-oxide material, piroctone olamine. cMIC testing was conducted utilizing Staphylococcus aureus as the bacteria. […] When combined, they were efficacious at levels of 6.25 ppm piroctone olamine and only 3.13 ppm of hinokitiol. Thus, a benefit is seen where the combination of piroctone olamine and hinokitiol comprise about 9 ppm or more by weight of the cleansing composition. Thus, hinokitiol and piroctone olamine levels are reduced by 10.7 times (33.3/3.13) and 2 times (12.5/6.25), respectively. […] Thus, combining piroctone olamine and hinokitiol allows for the use of less of each material and can reduce costs.
Combinatorial Minimum Inhibitory Concentration (cMIC) Method
A Combinatorial Minimum Inhibitory Concentration (“cMIC”) is used to determine the combinatorial effects of two chemicals on anti-bacterial activity in a tissue culture setting. Herein, the cMIC is a measure of the Minimum Inhibitory concentrations (MIC) of Hinokitiol in combination with Piroctone Olamine or vice versa.
1. Method Overview: • a. Each cMIC assay is run in triplicates. • b. Staphylococcus aureus ATCC 6538 is cultured on tryptic soy agar (TSA) (Oxoid CM0131) over 24 hours. The single colonies are then transferred into saline and mixed through vortex to obtain an optical density (OD) of 0.08-0.13 at 620 nm. 200 μL of this bacterial suspension is added to 19.8 mL of Mueller Hinton Broth (MHB) (BD 212322). This gives 5×10^5 cfu/mL. 100 μL of this bacteria-MHB mix is added to a 96 well flat-bottomed plate (TRP 92196). • c. Hinokitiol is pipetted into the wells in varying concentrations as indicated below. • d. Piroctone Olamine is pipetted into the wells in varying concentrations, as indicated below. • e. The plates are then read using a spectrophotometer at 620 nm. This is the 0-hour reading. • f. The plates are incubated at 37° C. between 18-24 hours with shaking at 50 rpm. • g. The optical density of the plate is then measured using a spectrophotometer at 620 nm. • h. The OD value is calculated as subtraction of the readings between 18-24 hour and the 0-hour. • i. cMIC is determined as the minimal concentration of Hinokitiol in combination with Piroctone Olamine or vice versa, corresponding to the well whose OD value is less than 10% of the OD value of the control well without Hinokitiol and Piroctone Olamine (full growth).

| SMILES | reduction of level when combined (MIC alone / level in combination) [times] | bacteria growth (values equal to or higher than 10 mean growth, less than 10 no growth) (Hinokitiol 3.13 ppm alone (Piroctone Olamine 0 ppm)) | bacteria growth (values equal to or higher than 10 mean growth, less than 10 no growth) (Hinokitiol 6.25 ppm alone (Piroctone Olamine 0 ppm)) | bacteria growth (values equal to or higher than 10 mean growth, less than 10 no growth) (Hinokitiol 12.5 ppm alone (Piroctone Olamine 0 ppm)) | bacteria growth (values equal to or higher than 10 mean growth, less than 10 no growth) (Hinokitiol 25 ppm alone (Piroctone Olamine 0 ppm)) | bacteria growth (values equal to or higher than 10 mean growth, less than 10 no growth) (Hinokitiol 33.5 ppm alone (Piroctone Olamine 0 ppm)) | bacteria growth (values equal to or higher than 10 mean growth, less than 10 no growth) (Hinokitiol 42.5 ppm alone (Piroctone Olamine 0 ppm)) | bacteria growth (values equal to or higher than 10 mean growth, less than 10 no growth) (Hinokitiol 50 ppm alone (Piroctone Olamine 0 ppm)) | Bacterial growth (Piroctone olamine 0 ppm, Hinokitiol 33.5 ppm) | MIC (Staphylococcus aureus, ATCC6538, single material alone, read-out: minimum inhibitory concentration (MIC) against Staphylococcus aureus) [µg/mL] | bacteria growth (values equal to or higher than 10 mean growth, less than 10 no growth) (Piroctone Olamine 3.13 ppm alone (Hinokitiol 0 ppm)) | bacteria growth (values equal to or higher than 10 mean growth, less than 10 no growth) (Piroctone Olamine 6.25 ppm alone (Hinokitiol 0 ppm)) | bacteria growth (values equal to or higher than 10 mean growth, less than 10 no growth) (Piroctone Olamine 12.5 ppm alone (Hinokitiol 0 ppm)) | bacteria growth (values equal to or higher than 10 mean growth, less than 10 no growth) (Piroctone Olamine 15 ppm alone (Hinokitiol 0 ppm)) | bacteria growth (values equal to or higher than 10 mean growth, less than 10 no growth) (Piroctone Olamine 17.5 ppm alone (Hinokitiol 0 ppm)) | bacteria growth (values equal to or higher than 10 mean growth, less than 10 no growth) (Piroctone Olamine 20 ppm alone (Hinokitiol 0 ppm)) | bacteria growth (values equal to or higher than 10 mean growth, less than 10 no growth) (Piroctone Olamine 25 ppm alone (Hinokitiol 0 ppm)) | Bacterial growth (Piroctone olamine 6.25 ppm, Hinokitiol 0 ppm) | minimum inhibitory concentration (MIC) against Staphylococcus aureus (single material alone) [ppm] |
| --- | --- | --- | --- | --- | --- | --- | --- | --- | --- | --- | --- | --- | --- | --- | --- | --- | --- | --- | --- |
| CC(C)c1cccc(=O)c(O)c1 [Hinokitiol] | 10.7 | 78 | 103 | 65 | 17 | 4 | 2 | 1 | Yes | 33.3 | – | – | – | – | – | – | – | – | – |
| Cc1cc(CC(C)CC(C)(C)C)n(O)c(=O)c1.NCCO (centres unmarked) [Piroctone Olamine, piroctone olamine] | 2 | – | – | – | – | – | – | – | – | – | 94 | 46 | 1 | 1 | 1 | 1 | 2 | Yes | 12.5 |

From patent publication US11191705B2, “Personal cleansing compositions” (The Procter & Gamble Company, priority 2018, dated 2021)
